Experiments:
[1] = system: Rat striatal muscarinic receptors; experiment: Agonist intrinsic activity: inhibition of forskolin-activated [3H]cAMP in dissociated rat striatum; format: cell-based; settings: selective muscarinic antagonist
From the text: Rat striatal muscarinic receptors are coupled to the inhibition of the conversion of adenosine triphosphate (ATP) to cyclic adenosine monophosphate (cAMP). […] The ATP stores in dissociated rat striatum were labeled with [^3 H]adenine and [^3 H]-cAMP levels were elevated with 10 um forskolin.

[2] = in vivo; cited from earlier work
M1 muscarinic receptor = biological target: T1, M1 muscarinic receptor (Rattus norvegicus, UniProt P08482); experiment: Competition with [3H]pirenzepine at cortical M1 muscarinic receptors; format: binding; settings: Table 3; read-out: M1 Ki
T1 construct: from tissue; host or cells: adult rat fronto-parietal cortex membranes (homogenate)
T1 sequence (P08482 1-460): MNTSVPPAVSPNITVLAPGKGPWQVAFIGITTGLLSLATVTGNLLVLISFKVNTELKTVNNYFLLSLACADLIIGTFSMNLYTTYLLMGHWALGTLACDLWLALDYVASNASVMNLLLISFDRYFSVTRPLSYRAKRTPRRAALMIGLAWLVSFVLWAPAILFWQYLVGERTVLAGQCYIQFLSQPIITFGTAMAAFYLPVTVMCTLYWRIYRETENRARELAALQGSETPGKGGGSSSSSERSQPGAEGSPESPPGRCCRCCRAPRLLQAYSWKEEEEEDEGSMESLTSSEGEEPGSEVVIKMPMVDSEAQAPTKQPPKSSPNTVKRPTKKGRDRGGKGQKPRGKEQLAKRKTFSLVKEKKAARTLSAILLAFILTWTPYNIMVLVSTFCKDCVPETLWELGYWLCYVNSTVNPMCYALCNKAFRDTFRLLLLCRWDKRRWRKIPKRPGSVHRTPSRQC

[3] = biological target: neuronal nicotinic cholinergic receptor; experiment: [3H]-MCC binding to nicotinic receptors in whole rat brain membranes; settings: for Ki: Table 3, [3H]-MCC, rat brain membranes, 4° C., read-out: Nic Ki (binding to the nicotinic receptor); for Nic % Enhancement @ Max. Effect: at 0.0001 (mM) as printed; for Nic Conc. @ Max. Effect: concentration giving maximal enhancement of [3H]-MCC binding; for Affinity for M1/M2 muscarinic and nicotinic neuronal binding sites: muscarinic (M1 or M2) and nicotinic; for Affinity for M1/M2 muscarinic and nicotinic neuronal binding sites / Binding of other nicotinic ligands to the neuronal nicotinic receptor: words
Procedure: Binding of [^3 H]methylcarbamylcholine ([^3 H]-MCC) to nicotinic receptors is accomplished using crude synaptic membranes prepared from whole rat brain (Snyder and Enna, Brain Res. 1975, 100:81). Washed membranes are stored at -80° C. prior to use. Frozen aliquots are slowly thawed and resuspended in 20 volumes of buffer (containing: 120 mM NaCl, 5 mM KCl, 2 mM MgCl2, 2 mM CaCl2, and 50 mM Tris-Cl, pH 7.4 @4° C.). After centrifuging at 20K×9 for 15 minutes, the pellets are resuspended in 30 volumes of buffer. Homogenate ([…]) is added to triplicate tubes containing concentrations of test compound and [^3 H]-MCC (3 nM) in a final volume of […]. Samples are incubated for 60 minutes at 4° C., then rapidly filtered through Whatman GF/B filters presoaked in 0.5% polyethylimine using 3×4 ml of ice-cold buffer. The filters are counted in 4 mL of Ecolume (ICN). Nonspecific binding is determined in the presence of 10 […] and values were expressed as a percentage of total binding. IC50 values are determined with the ALLFIT curve-fitting program and IC50 values are converted to Ki values using the Cheng and Prusoff correction, (Ki=IC50 /(1+[ligand]/Kd ligand). Alternatively, data are expressed as a percentage of the total specific binding.

M2 muscarinic receptor = M2 muscarinic receptor (Rattus norvegicus, UniProt P10980); format: binding; settings: read-out: M2 Ki; Table 3
male Sprague-Dawley rats = experiment: Mean arterial pressure, resting CBF and basal forebrain-elicited cortical CBF (laser-Doppler flowmetry); format: in vivo, rat
Procedure: General Surgery for CBF Measurement--Methods for surgical preparation of rats for electrical stimulation of brain and measurement of rCBF have been previously described (Nakai et al., Am. J. Physiol. 1982, 243:226) and are summarized below.
Studies are conducted on male Sprague-Dawley rats that are maintained in a thermally controlled (26°-27° C.) light-cycled (07.00 hour on-019.00 hour off) environment, fed standard rat chow and given water ad libitum. Anesthesia is induced with halothane (3.5%; balance 02) delivered through a nose mask and maintained at 2% during the initial surgery. Thin-wall vinyl catheters (o.d.=0.03 inch) are placed in each femoral artery and vein, and the trachea is cannulated.
Animals are subsequently co-anesthetized with urethane (1.5 g/kg, s.c.) and placed in a stereotaxic frame with the head positioned so that the floor of the IVth ventricle was horizontal (incisor bar position: -11 mm.). After connecting the tracheal cannula to a small-animal respirator, the animals are paralyzed with d-tubocurarine (0.6 mg/kg/h, i.m.), and ventilated (80 cpm) with 100% 02. Arterial pressure (AP) and heart rate (HR) are continuously monitored through one of the arterial catheters connected to a Statham P23Db transducer that is coupled to a chart recorder. The level of anesthesia during surgery or subsequent experimental testing is assessed by the AP response to tail pinch, with increasing levels of arousal giving rise to irregular AP readings. Booster doses of urethane (250 mg/kg, s.c.) are given as needed.
Bilateral craniotomies (approximately 4 mm×11 mm) are performed overlying the frontoparietal cortices taking care to leave the dura intact. Halothane is delivered at a reduced rate of 1% during cranial surgery and discontinued afterward. A small volume (about 0.2 ml) of arterial blood is sampled after completion of all surgery for measurement of PO2, PCO2 and pH by a blood gas analyzer. Arterial blood gases are maintained so that PO2 was greater than 100 mm Hg, PCO2 =33-38 mm Hg, and pH=7.35-7.45. Maintaining these values is accomplished by adjusting the stroke volume of the ventilator. Once appropriate physiological parameters are obtained (approximately 30 min), the experimental protocol is initiated.
Electrical Stimulation of the Basal Forebrain (BF)--The BF is stimulated with cathodal current delivered through a stainless steel concentric bipolar electrode ([…]) made by Rhodes Medical Instruments (Model SNEX-100). Electrical pulses are generated by a square wave stimulator (Grass, Model S-88) and constant current is passed through a photoelectric stimulus-isolation unit (Grass, Model PSIU6). The stimulus current is measured on an oscilloscope by continuously displaying the voltage drop across a 10-ohm resistor.
The procedure for eliciting an increased cortical CBF response requires the stereotaxic placement of the stimulating electrode into the BF. For positioning, the electrode is inclined posteriorly to 18 degrees, and the stereotaxic coordinates used were 5.0 mm posterior to, and 2.6 mm lateral to bregma (stereotaxic zero reference point). […] These parameters have been shown previously to elicit maximal increases in cortical CBF (Arneric, Excerpta Medica International Congress Series, Vol. 869:381, 1989). The region of the BF that selectively affects cortical CBF is restricted, with electrode movements of 0.5 mm dorsal or ventral to this site eliciting potent vasodepressor responses in addition to the increases in CBF. […] When CBF increases of approximately 100% or greater are repeatedly obtained in the absence of significant changes in AP (<10 mm Hg) or HR (<10 beats/min.), and when the perfusion rate is stable in the absence of BF stimulation, the experimental testing is started.
CBF Measurement with Laser--Dopler Flowmetry (LDF)--The principles and technical aspects of LDF are presented in detail elsewhere (Bonner et al., Appl. Opt. 1981, 20:2097; Stern et al., Am. J. Physiol. 1977, 232:H441). […]

[4] = 0.01 mg/kg, iv, mean of three experiments

M2 muscarinic receptor, sequence (P10980 whole entry): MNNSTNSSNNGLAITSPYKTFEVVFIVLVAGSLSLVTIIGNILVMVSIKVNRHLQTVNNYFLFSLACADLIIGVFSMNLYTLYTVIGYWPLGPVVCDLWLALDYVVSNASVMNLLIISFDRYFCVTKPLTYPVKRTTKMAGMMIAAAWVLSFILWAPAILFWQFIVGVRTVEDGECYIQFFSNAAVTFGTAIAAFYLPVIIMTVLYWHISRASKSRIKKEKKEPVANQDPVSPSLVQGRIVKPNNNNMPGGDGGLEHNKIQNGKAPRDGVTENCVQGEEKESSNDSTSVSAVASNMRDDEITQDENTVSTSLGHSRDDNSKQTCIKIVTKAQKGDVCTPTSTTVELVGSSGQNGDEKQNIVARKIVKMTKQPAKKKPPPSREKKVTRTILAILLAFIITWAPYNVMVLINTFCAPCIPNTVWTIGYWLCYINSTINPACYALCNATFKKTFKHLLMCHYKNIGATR

Structure (SMILES) | Ki (M1 muscarinic receptor) [µM] | Ki [3] [µM] | Nic % Enhancement @ Max. Effect [3] | Nic Conc. @ Max. Effect [3] [mM] | Affinity for M1/M2 muscarinic and nicotinic neuronal binding sites [3] | Binding of other nicotinic ligands to the neuronal nicotinic receptor [3] | Ki (M2 muscarinic receptor) [µM] | other results
CN1[C@@H]2CC[C@H]1C[C@@H](OC(=O)C(CO)c1ccccc1)C2 (some centres unmarked) [atropine, reference compound] | – | – | – | – | – | – | – | Blockade of all agonist responses [1]: fully blocked
C[N+](C)(C)CCOC(N)=O [carbachol] | – | – | – | – | – | – | – | CNS penetration [2]: poor CNS penetration
COC(=O)C1=CCCN(C)C1 [arecoline] | – | – | – | – | – | – | – | Pharmacokinetics [2]: unfavorable pharmacokinetics
CN1C(=O)N(c2ccccc2)C2(CCNCC2)C1=O.Cl [Example 3, 3-Methyl-1-phenyl-1,3,8-triazaspiro[4,5]decane-2,4-dione hydrochloride] | > 100 | > 100 | +42% | 0.0001 | little affinity | potently enhance the binding of other nicotinic ligands | > 100 | BF-Elicited CBF Response, % Change from Pre-Drug CONTROL (male Sprague-Dawley rats; [4]): +39%; MAP, % Change from Pre-Drug CONTROL (male Sprague-Dawley rats; [4]): +5%; Resting CBF, % Change from Pre-Drug CONTROL (male Sprague-Dawley rats; [4]): +23%; Effects on MAP (male Sprague-Dawley rats; 0.01-10.0 mg/kg iv): No remarkable effects on MAP; Effects on blood pressure (male Sprague-Dawley rats; iv): no overt effects on blood pressure; Resting CBF and BF-elicited CBF response (male Sprague-Dawley rats; low concentrations, iv, words): effective in enhancing resting CBF and the BF-elicited CBF response
CN1CCC2(CC1)C(=O)N(C)C(=O)N2c1ccccc1 [Example 4, 3,8-Dimethyl-1-phenyl-1,3,8-triazaspiro[4,5]decane-2,4-dione] | 28 | > 100 | +33% | 0.0001 | little affinity | potently enhance the binding of other nicotinic ligands | > 100 | –

From patent US5221675A, “Aza-spirocyclic compounds that enhance cholinergic neurotransmission” (Abbott Laboratories, priority 1991, dated 1993)
